The results in this text go back to ChEMBL document CHEMBL1124317, “Rationale for the synthesis and preliminary biological evaluation of highly active new antitumor nitrosoureido sugars” (J Med Chem, 1989).

A word on the T/C: it is the ratio of treated to control.

Assay type in all cases: functional
The subject of test [1] is Mus musculus. Kind of test: The number of B16 melanocarcinoma mice survived after 60 days with compound in olive oil injected by a dose of 20 mg/kg intraperitoneally; 1/20. To be noted: route intraperitoneal.
For test [2], the system named is Mus musculus. Kind of test: Anti tumor activity in olive oil when treated to mice with B16 melanocarcinoma with 20 mg/kg dose of compound intraperitoneally was expressed as percent of treated to control (T/C %). To be noted: route intraperitoneal.
In test [3] the test system is Mus musculus. Kind of test: Median survival time of the non surviving mice; treated with 20 mg/kg of compound in olive oil to mice with Lewis lung; 21-41.
For test [4], the system named is Mus musculus. In words: The number of Lewis lung mice survived after 30 days with compound in olive oil injected by a dose of 20 mg/kg intraperitoneally; 13/20. To be noted: route intraperitoneal.
For test [5], the system named is Mus musculus. In words: Anti tumor activity in olive oil when treated to mice with L1210 leukemia with 20 mg/kg dose of compound intraperitoneally was expressed as percent of treated to control (T/C %). Conditions: route intraperitoneal.
Test [6] concerns Mus musculus. Kind of test: The number of Lewis lung mice survived after 60 days with compound in olive oil injected by a dose of 20 mg/kg intraperitoneally; 8/20. Conditions: route intraperitoneal.
Test [7] relates to Mus musculus. Kind of test: Median survival time of the non surviving mice; treated with 20 mg/kg of compound in olive oil to mice with B16 Melanocarcinoma; 23-45.
Test [8] deals with Mus musculus. Kind of test: Median survival time of the non surviving mice; treated with 20 mg/kg of compound in olive oil to mice with L1210 leukemia tumor; 21-42.
Test [9] deals with Mus musculus. Kind of test: The number of L1210 Leukemia mice survived after 30 days with compound in olive oil injected by a dose of 20 mg/kg intraperitoneally; 4/15. Conditions: route intraperitoneal.
Test [10] can be described thus: Ratio of mice died to that of mice treated with 20 mg/kg of compound in olive oil intraperitoneally with B16 Melanocarcinoma; 0/20. Conditions: route intraperitoneal.
Test [11] can be described thus: Ratio of mice died to that of mice treated with 20 mg/kg of compound in olive oil intraperitoneally with Lewis lung; 0/20. Conditions: route intraperitoneal.
Test [12] in a line: Ratio of mice died to that of mice treated with 20 mg/kg of compound in olive oil intraperitoneally with L1210 leukemia tumor; 0/15. To be noted: route intraperitoneal.
Test [13] deals with Mus musculus. Kind of test: The number of B16 melanocarcinoma mice survived after 30 days with compound in olive oil injected by a dose of 20 mg/kg intraperitoneally; 9/20. Conditions: route intraperitoneal.
Test [14] relates to Mus musculus. Kind of test: The number of L1210 Leukemia mice survived after 60 days with compound in olive oil injected by a dose of 20 mg/kg intraperitoneally; 3/15. Conditions: route intraperitoneal.
For test [15], the system named is Mus musculus. Kind of test: Anti tumor activity in olive oil when treated to mice with Lewis lung with 20 mg/kg dose of compound intraperitoneally was expressed as percent of treated to control (T/C %). Conditions: route intraperitoneal.
Test [16] has as its system Mus musculus. In words: The number of Lewis lung mice survived after 60 days with compound in olive oil injected by a dose of 20 mg/kg intraperitoneally; 6/20. To be noted: route intraperitoneal.
Test [17] has as its system Mus musculus. Kind of test: The number of B16 melanocarcinoma mice survived after 30 days with compound in olive oil injected by a dose of 20 mg/kg intraperitoneally; 1/20. Conditions: route intraperitoneal.
Test [18] deals with Mus musculus. In words: The number of B16 melanocarcinoma mice survived after 60 days with compound in olive oil injected by a dose of 20 mg/kg intraperitoneally; 0/20. To be noted: route intraperitoneal.
The test system of test [19] is Mus musculus. In words: The number of L1210 Leukemia mice survived after 30 days with compound in olive oil injected by a dose of 20 mg/kg intraperitoneally; 15/15. Conditions: route intraperitoneal.
Test [20] relates to Mus musculus. Kind of test: The number of L1210 Leukemia mice survived after 60 days with compound in olive oil injected by a dose of 20 mg/kg intraperitoneally; 15/15. To be noted: route intraperitoneal.
Test [21] concerns Mus musculus. Kind of test: Median survival time of the non surviving mice; treated with 20 mg/kg of compound in olive oil to mice with Lewis lung; 19-46.
Test [22] relates to Mus musculus. In words: The number of Lewis lung mice survived after 30 days with compound in olive oil injected by a dose of 20 mg/kg intraperitoneally; 14/20. To be noted: route intraperitoneal.
For test [23], the system named is Mus musculus. In words: Median survival time of the non surviving mice; treated with 20 mg/kg of compound in olive oil to mice with B16 Melanocarcinoma; 20-32.
The subject of test [24] is Mus musculus. In words: Anti tumor activity in olive oil when treated to mice with L1210 leukemia with 5 mg/kg dose of compound intraperitoneally was expressed as percent of treated to control (T/C %). To be noted: route intraperitoneal.
Test [25] concerns Mus musculus. In words: The number of L1210 leukemia mice survived after 30 days with compound injected by a dose of 0.625 mg/kg intraperitoneally; 0/8. Conditions: route intraperitoneal.
Test [26] relates to Mus musculus. Kind of test: Median survival time of the non surviving mice; treated with 5 mg/kg of compound to mice with L1210 leukemia; 18-24.
The test system of test [27] is Mus musculus. In words: Median survival time of the non surviving mice; treated with 0.625 mg/kg of compound to mice with L1210 leukemia; 9-10.
Test [28] relates to Mus musculus. In words: The number of L1210 leukemia mice survived after 30 days with compound in aqueous solution injected by a dose of 5 mg/kg intraperitoneally; 0/10. To be noted: route intraperitoneal.
In test [29] the test system is Mus musculus. In words: The number of L1210 leukemia mice survived after 30 days with compound injected by a dose of 10 mg/kg intraperitoneally; 8/8. Conditions: route intraperitoneal.
For test [30], the system named is Mus musculus. Kind of test: Anti tumor activity l when treated to mice with L1210 leukemia with 2.5 mg/kg dose of compound intraperitoneally was expressed as percent of treated to control (T/C %). Conditions: route intraperitoneal.
Test [31] has as its system Mus musculus. In words: Anti tumor activity l when treated to mice with L1210 leukemia with 1.25 mg/kg dose of compound intraperitoneally was expressed as percent of treated to control (T/C %). To be noted: route intraperitoneal.
The nature of test [32]: Mortality range of the mice with L1210 leukemia treated with 10 mg/kg of dose intra peritoneally with no of mice survived/no of mice treated; 0/8.
Test [33] concerns Mus musculus. Kind of test: Median survival time of the non surviving mice; treated with 1.25 mg/kg of compound to mice with L1210 leukemia; 9-11.
Test [34] is described as follows: Mortality range of the mice with L1210 leukemia treated with 2.5 mg/kg of dose intraperitoneally with no of mice survived/no of mice treated; 0/8. Conditions: route intraperitoneal.
The nature of test [35]: Mortality range of the mice with L1210 leukemia treated with 5 mg/kg of dose intraperitoneally with no of mice survived/no of mice treated; 0/8. To be noted: route intraperitoneal.
Test [36] is described as follows: Mortality range of the mice with L1210 leukemia treated with 0.625 mg/kg of dose intraperitoneally with no of mice survived/no of mice treated; 0/8. Conditions: route intraperitoneal.
Test [37] in a line: Number of mice died/no of mice treated with 5 mg/kg of compound in aqueous solution intraperitoneally with L1210 leukemia; 0/10. Conditions: route intraperitoneal.
The test system of test [38] is Mus musculus. Kind of test: The number of L1210 leukemia mice survived after 30 days with compound injected by a dose of 1.25 mg/kg intraperitoneally; 0/8. To be noted: route intraperitoneal.
Test [39] in a line: Mortality range of the mice with L1210 leukemia treated with 1.25 mg/kg of dose intraperitoneally with no of mice survived/no of mice treated; 0/8. To be noted: route intraperitoneal.
Test [40] has as its system Mus musculus. Kind of test: Anti tumor activity l when treated to mice with L1210 leukemia with 0.625 mg/kg dose of compound intraperitoneally was expressed as percent of treated to control (T/C %). To be noted: route intraperitoneal.
In test [41] the test system is Mus musculus. Kind of test: Median survival time of the non surviving mice; treated with 5 mg/kg of compound in olive oil to mice with L1210 leukemia; 16-19.
For test [42], the system named is Mus musculus. Kind of test: Median survival time of the non surviving mice; treated with 2.5 mg/kg of compound to mice with L1210 leukemia; 11-12.
For test [43], the system named is Mus musculus. Kind of test: The number of L1210 leukemia mice survived after 30 days with compound injected by a dose of 2.5 mg/kg intraperitoneally; 0/8. Conditions: route intraperitoneal.
Test [44] relates to Mus musculus. In words: The number of L1210 leukemia mice survived after 30 days with compound injected by a dose of 5 mg/kg intraperitoneally; 0/8. To be noted: route intraperitoneal.
The subject of test [45] is Mus musculus. Kind of test: Anti tumor activity l when treated to mice with L1210 leukemia with 5 mg/kg dose of compound intraperitoneally was expressed as percent of treated to control (T/C %). Conditions: route intraperitoneal.
Test [46] has as its system Mus musculus. In words: The number of L1210 leukemia mice survived after 60 days with compound in aqueous solution injected by a dose of 5 mg/kg intraperitoneally; 0/10. Conditions: route intraperitoneal.

On to `COC1CC(O)C(O)C(CNC(=O)N(CCCl)N=O)O1` (stereo unspecified), for which the Survivals was 1 in the test on Mus musculus [1]; 13 in the test with Mus musculus [4]; 8 in the test on Mus musculus [6]; 4 in the test with Mus musculus [9]; 9 in the test with Mus musculus [13]; 3 in the test with Mus musculus [14]. In addition, the results for the T/C in the test on Mus musculus [2], in the test with Mus musculus [5] and in the test with Mus musculus [15] were 215%, 263% and 313%, respectively. Further, the Median survival time in the test on Mus musculus [3] is 39; with Mus musculus [7] it was 30; with Mus musculus [8] it was 23.5. Besides, the Ratio in test [10], in test [11] and in test [12] was 0 throughout.

As for `COC1CC(NC(=O)N(CCCl)N=O)C(OC)C(C)O1` (stereo unspecified), the Survivals is 6 in the test with Mus musculus [16]; 1 in the test with Mus musculus [17]; 0 in the test with Mus musculus [18]; 15 in the test on Mus musculus [19]; 15 with Mus musculus [20]; 14 in the test with Mus musculus [22]. In addition, the values for the T/C in the test with Mus musculus [2] and with Mus musculus [15] were 170% and 281%, respectively. Further, the Median survival time in the test on Mus musculus [21] was found to be 35; in the test with Mus musculus [23] it was 23.62. Besides, the Ratio in [10], in test [11] and in test [12] was 0 each time.

As to `O=NN(CCCl)C(=O)NCCCl` [CARMUSTINE], the T/C was determined as 177% in the test on Mus musculus [24]; 128% in the test on Mus musculus [30]; 110% in the test on Mus musculus [31]; 104% in the test on Mus musculus [40]; 220% in the test with Mus musculus [45]. In addition, the Survivals in the test with Mus musculus [25] came out at 0; in the test with Mus musculus [28], 0; with Mus musculus [29], 8; with Mus musculus [38], 0; in the test on Mus musculus [43], 0; in the test with Mus musculus [44], 0. The Survivals in the test on Mus musculus [46] is 0. The Median survival time is 19.8 with Mus musculus [26]; 9.4 in the test on Mus musculus [27]; 9.9 in the test with Mus musculus [33]; 16.75 in the test with Mus musculus [41]; 11.5 in the test with Mus musculus [42]. The Ratio in test [32], in test [34], in test [35], in test [36], in [37] and in [39] was 0 throughout.
